Laboratory results: US20250051762A1, “PLATFORM USING DNA-ENCODED SMALL MOLECULE LIBRARIES AND RNA SELECTION TO DESIGN SMALL MOLECULES THAT TARGET RNA” (University of Florida Research Foundation, Incorporated, priority 2021, published 2025)

Legend:
[1] = molecular target: pri-miR-27a; experiment: Competitive MST binding assay with unlabeled miR-27a precursor; set-up: species or system human; details: 100 nM compound, Cy5-labeled Drosha site model
Protocol: To measure the affinity of 9 for the 5′GAG/3′CCC loop in the context of pri-miR-27a, a competitive binding assay was used with a constant concentration of compound (100 nM) and the Cy5-labeled model of pri-miR-27a's Drosha site, and varying concentrations of unlabeled miR-27a precursor as reported by miRBase. (35) That is, the miR-27a precursor competes with the Cy5-labeled model of pri-miR-27a's Drosha site for binding 9. […] Thus, the compounds identified by using DEL-2DCS can bind avidly to biologically relevant RNA targets identified by Inforna.
For competitive binding assays, both WT and mutant pri-miR-27a RNAs were transcribed as previously described (see Table S6 for sequences). (11) The RNA was purified by gel electrophoresis and folded in 1× Binding Buffer at final concentration of 750 nM by heating at 60° C. for 5 min and then slowly cooling to room temperature. […] The resulting data were analyzed by SigmaPlot and fitted by Equation 2 to yield the competitive dissociation constant (Kd competitive).
where F is the concentration of fluorescence-labeled RNA; unbound and bound refers to the thermophoresis signal at completely unbound and bound state of RNA, respectively; c is the concentration of the compound; f (c) is the thermophoresis signal at compound concentration of c; Kd is the dissociation constant. […]

[2] = test system: MDA-MB-231 cells; experiment: miRNome profiling of all miRNAs detectable in MDA-MB-231 cells; assay type: cell-based, human; details: 1 μM, FDR <1%, P<0.01
[3] = test system: MDA-MB-231 cells; experiment: Global proteomics profiling by LC-MS/MS in MDA-MB-231 cells; assay type: cell-based, human
Protocol: Global proteomics profiling using LC-MS/MS: Treated cell pellets were resuspended in 1×PBS, lysed by sonication, and protein concentration was determined by using a Bradford assay (Bio-Rad). Samples (30 μg) were denatured in 6 M urea in 50 mM NH4HCO3, pH 8, reduced for 30 min with 10 mM TCEP, and alkylated for 30 min in the dark with 25 mM iodoacetamide. Samples were diluted to 2 M urea with 50 mM NH4HCO3, pH 8, and the proteins were digested with trypsin (1 μL of 0.5 μg/μL) in the presence of 1 mM CaCl2) for 12 h at 37° C. The samples were acidified by adding acetic acid to a final concentration of 5% (v/v). After desalting the samples over a self-packed C18 spin column, they were dried and analyzed by LC-MS/MS (see below). The resulting MS data were processed with MaxQuant as described below.
LC-MS/MS analysis: Peptides were dissolved in water containing 0.1% formic acid (FA) and analyzed using an EASY-nLC 1200 nano-UHPLC connected to a Q Exactive HF-X Quadrupole-Orbitrap mass spectrometer (Thermo Scientific). A 50 cm long, 75 μm i.d. chromatography column packed with ReproSil-Pur 120 C18-AQ 2.4 μm beads (Dr. Maisch GmbH) and capped by a 5 μm tip was used. Water with 0.1% FA in water (Buffer A) and 90% acetonitrile (MeCN): 10% water with 0.1% FA (Buffer B) were used as liquid chromatography solvents. A flow rate of 300 nL/min over a 240 min linear gradient (5-35% Buffer B) at 65° C. was used to clute peptides into the mass spectrometer. Data-dependent acquisition (top-20, NCE 28, R=7,500) after full MS scan (R=60,000, m/z 400-1,300) with a dynamic exclusion of 10 seconds was performed. Peptide match to prefer and isotope exclusion were selected and enabled.
MaxQuant analysis: The MaxQuant software (13) (V1.6.1.0) was used to analyzed the MS data and searched against the human proteome (Uniprot) and a common list of contaminants (included in MaxQuant). Peptide search tolerance was set to 20 ppm for the first search and 10 ppm for the main search while 0.02 Da was used for the fragment mass tolerance. The false discovery rate (FDR) for peptides, proteins and sites identification was set to 1%. Peptide length was set to at least 6 amino acids and peptide re-quantification was enabled. Label-free quantification (MaxLFQ) and “match between runs” were activated. Number of peptides per protein was set to ≥2. Searched modifications were methionine oxidation (variable modification) and carbamidomethylation of cysteines (fixed modification).
TargetScan analysis: TargetScanHuman v7.2 was used to predict downstream protein targets of miR-27a-3p (n=1421), miR-23a-3p (n=1342) and miR-24-3p (n=761) containing conserved sites, all proteins with a context score≤0 were included to the analysis per TargetScan recommendation. Approximately 15% of miR-27a-3p targets (220/1421), ˜18% of miR-23a-3p targets (247/1342), and ˜16% of miR-24-3p targets (122/761) were detectable in the global proteomics analysis. […] Targets of miR-23a-3p and miR-24-3p were used as comparison as the two miRNAs are expressed at similar levels as miR-27a-3p in MDA-MB-231 cells and are located in the same cluster. P values between distributions were calculated using a two-tailed Kolmogorov-Smirnov test.

[4] = test system: MDA-MB-231 cells; experiment: Migration assay of MDA-MB-231 cells; assay type: cell-based, human
Protocol: Migration assay: MDA-MB-231 cells were grown in 60 mm diameter dishes and treated as described in “Cell culture and compound treatment” for 12 h. The medium was then removed and replaced with growth medium lacking FBS but with the same concentration of compound. After 12 h of serum starvation, the cells were detached and seeded to ThinCert™ (GBO) 24-well hanging inserts with 8 μm pores (˜5×10^4 cells per insert). Fresh growth medium with FBS was dispended in a 24-well plate (600 μL each well), and the ThinCert™ hanging inserts containing cells were then placed into the wells. After incubating for 24 h, the growth medium in the inserts was removed, and the remaining cells were washed twice with 1×DPBS. Cells were fixed by addition of 3% (w/v) paraformaldehyde (PFA) prepared in 1×DPBS at room temperature for 20 min. The PFA solution was removed, and cells were washed twice with 1×PBS. The cells were then stained with Crystal Violet (10 mg/mL; 4:1 H2O: MeOH) at room temperature for 20 min. A cotton swab was used to gently remove non-migrating cells from the top side of the filter. The remaining cells were then imaged by microscopy and counted for quantification (3 fields of view per sample).

[5] = 100 nM, 3,127 detectable proteins, FDR <5%
[6] = treated vs. vehicle, relative to all proteins

SMILES: C#CCN(CC(N)=O)C(=O)C[C@H](Cc1c[nH]c2ccccc12)NC(=O)[C@@H]1C[C@H](NC(=O)Cn2c(=O)[nH]c3ccccc3c2=O)CN1 [Compound 9]
- Kd [1]: 40 ± 30 nM
- only statistically significant effect across the miRNome [2]: downregulation of miR-27a
- number of proteins significantly downregulated [3, 5]: five
- number of proteins significantly upregulated [3, 5]: 15
- upregulated proteins that are putative direct targets of miR-27a ([3]; 100 nM, of the 15 upregulated, per TargetScan): Eleven
- cumulative distribution of fold change of miR-23a-3p targets [3, 6]: no significant change
- cumulative distribution of fold change of miR-24-3p targets [3, 6]: no significant change
- cumulative distribution of fold change of miR-27a-3p targets [3, 6]: significant upregulation
- number of migrated cells ([4]; MDA-MB-231, normalized to vehicle): dose dependent reduction
- concentration with statistically significant phenotype reduction ([4]; MDA-MB-231 migration): 100 nM
